Measurements as given in US11696913B2, “Prolonged ectoparasite-controlling agent for animal” (MITSUI CHEMICALS AGRO, INC., priority 2017, dated 2023).

Key:
Ctenocephalides felis [1] = test: Ctenocephalides felis in-vitro feeding test with fleas (CTECFE oral); conditions: 48 hours, read-out: insecticidal feeding activity; for pest or weed control at 0.16 ppm: dose 0.16 ppm in citrated cattle blood; for pest or weed control at 0.8 ppm: dose 0.8 ppm in citrated cattle blood; for pest or weed control at 4 ppm: dose 4 ppm in citrated cattle blood; for pest or weed control at 0.032 ppm: dose 0.032 ppm in citrated cattle blood
Outline: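 About 20 unfed adult cat fleas fed through parafilm on citrated cattle blood containing test substance (DMSO solution diluted in blood), held at about 37° C. Kill rate scored after 48 hours, 100% meaning all fleas dead.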

Laodelphax striatellus = test: Insecticidal testing against small brown planthopper; format: in vivo; conditions: 144 h, concentration 100 ppm, sprayed rice seedlings, after 6 days, read-out: pesticidal rate
Outline: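 Acetone solution of compound at a set concentration sprayed onto rice seedlings, air-dried, then exposed to 10 planthoppers (one group). Held at 25° C; survival rate recorded after 6 days.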

Spodoptera litura = test: Insecticidal testing against common cutworm; format: in vivo; conditions: foliar, 144 h, concentration 100 ppm, cabbage leaf dip, second-stage larvae, after 6 days, read-out: pesticidal rate
Source text: Insecticidal Testing Against Common Cutworm (Spodoptera litura)

Dermacentor variabilis = test: In vitro contact test with adult hard ticks (Dermacentor variabilis); conditions: read-out: acaricidal activity; for pest or weed control at 1 µg/cm2, 1 µg/cm2: dose 1 μg/cm^2, 48 h; for pest or weed control at 0.2 µg/cm2, 0.2 µg/cm2: dose 0.2 μg/cm^2, 48 h
Outline: (§1)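 Adult R. sanguineus, I. ricinus, D. variabilis or A. americanum nymphs exposed in glass vials coated with compound from acetone (900 ppm gives 5 μg/cm^2). Held 48 h at room temperature (R. sanguineus) or 21° C., 85% rel. hum.; then heated at 45-50° C. ≤5 min, motionless or uncoordinated ticks scored dead/moribund.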

Rhipicephalus sanguineus = test: In vitro contact test with adult hard ticks (Rhipicephalus sanguineus); conditions: read-out: acaricidal activity; for pest or weed control at 0.2 µg/cm2, 0.2 µg/cm2: dose 0.2 μg/cm^2, 48 h; for pest or weed control at 1 µg/cm2, 1 µg/cm2: dose 1 μg/cm^2, 48 h
Outline: as §1

Plutella xylostella = test: Insecticidal testing against diamondback moth; format: in vivo; conditions: foliar, 144 h, concentration 100 ppm, cabbage leaf dip, third-stage larvae, after 6 days, read-out: pesticidal rate
Source text: Insecticidal Testing Against Diamondback Moth (Plutella xylostella)

Ctenocephalides felis [2] = test: In vitro contact test with fleas; conditions: read-out: insecticidal activity; for pest or weed control at 0.2 µg/cm2, 0.2 µg/cm2: dose 0.2 μg/cm^2, dead or moribund fleas after 48 h; for pest or weed control at 1 µg/cm2, 1 µg/cm2: dose 1 μg/cm^2, dead or moribund fleas after 48 h
Outline: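 Adult male and female cat fleas (5-10 per tube) placed in glass tubes coated with compound from acetone solution (900 ppm gives 5 μg/cm^2), kept at room temperature and ambient humidity. After 48 h, motionless or uncoordinated fleas scored dead or moribund; activity expressed as % dead or moribund.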

[3] = system: Rhipicephalus (Boophilus) microplus; test: In vitro injection test with Rhipicephalus (Boophilus) microplus (BOOPMI Inj); conditions: 168 h, laid fertile eggs after 7 days, read-out: acaricidal activity; for pest or weed control at 32 ng: dose 0.032 μg/animal injected; for pest or weed control at 0.00016 mg: dose 0.16 μg/animal injected; for pest or weed control at 0.0008 mg: dose 0.8 μg/animal injected
Outline: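 Test substance in DMSO; 1 μl injected into abdomen of each of 5 engorged adult female ticks, then held at 28° C., 85% rel. hum. Activity scored after 7 days from laying of fertile eggs: 100% = no eggs or all infertile, 0% = all eggs fertile.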

Amblyomma americanum = test: In vitro contact test with hard ticks (Amblyomma americanum nymphs); conditions: read-out: acaricidal activity; for pest or weed control at 0.2 µg/cm2, 0.2 µg/cm2: dose 0.2 μg/cm^2, 48 h; for pest or weed control at 1 µg/cm2, 1 µg/cm2: dose 1 μg/cm^2, 48 h
Outline: as §1

Ixodes ricinus = test: In vitro contact test with adult hard ticks (Ixodes ricinus); conditions: read-out: acaricidal activity; for pest or weed control at 1 µg/cm2, 1 µg/cm2: dose 1 μg/cm^2, 48 h; for pest or weed control at 5 µg/cm2, 5 µg/cm2: dose 5 μg/cm^2, 48 h
Method: In Vitro Contact Tests with Adult Hard Ticks
In vitro contact tests with ticks were conducted with adult males and females of Rhipicephalus sanguineus, Ixodes ricinus, or Dermacentor variabilis, or nymphs of Amblyomma americanum.
For the coating of the test vials, the test substance was dissolved and diluted in acetone p.a. to the desired concentration. The solution was then homogeneously applied to the inner wall and base of a glass vial by turning and rocking on an orbital shaker until complete evaporation of the solvent. For example, with a 900 ppm solution of test substance, an area-based dose of 5 μg/cm^2 was achieved.
After the solvent was completely evaporated, 5-10 adult ticks were put in each coated test vial, which was then sealed with a perforated plastic lid and incubated in a horizontal position in the dark at room temperature and ambient humidity (Rhipicephalus sanguineus) or in a climate-controlled cabinet (Ixodes ricinus, Dermacentor variabilis, Amblyomma americanum [21° C., 85% rel. hum.]). Acaricidal activity against the respective tick species was determined after 48 h. For this, ticks were collected to the base of the test vial by gentle knocking, and test vials were then incubated on a hotplate at 45-50° C. for no longer than 5 min. Ticks which remained motionless on the base of the test vial or moved uncoordinated without deliberately climbing up to avoid the heat were considered dead or moribund, respectively.
A substance was judged to have good acaricidal activity against the respective tick species when at least 80% of ticks were found dead or moribund at a dose of the substance of g/cm^2. An acaricidal activity of 100% means all ticks were dead or moribund. An acaricidal activity of 0% means none of the ticks was found dead or moribund.

Row | SMILES | pest or weed control at 0.16 ppm (Ctenocephalides felis [1]) [%] | pest or weed control at 0.8 ppm (Ctenocephalides felis [1]) [%] | pest or weed control at 4 ppm (Ctenocephalides felis [1]) [%] | pest or weed control at 100 ppm (Laodelphax striatellus) [%] | pest or weed control at 100 ppm (Spodoptera litura) [%] | pest or weed control at 1 µg/cm2, 1 µg/cm2 (Dermacentor variabilis) [%] | pest or weed control at 0.2 µg/cm2, 0.2 µg/cm2 (Rhipicephalus sanguineus) [%] | pest or weed control at 1 µg/cm2, 1 µg/cm2 (Rhipicephalus sanguineus) [%] | pest or weed control at 100 ppm (Plutella xylostella) [%] | pest or weed control at 0.2 µg/cm2, 0.2 µg/cm2 (Ctenocephalides felis [2]) [%] | pest or weed control at 1 µg/cm2, 1 µg/cm2 (Ctenocephalides felis [2]) [%] | pest or weed control at 0.00016 mg [3] [%] | pest or weed control at 0.0008 mg [3] [%] | pest or weed control at 1 µg/cm2, 1 µg/cm2 (Amblyomma americanum) [%] | pest or weed control at 0.2 µg/cm2, 0.2 µg/cm2 (Dermacentor variabilis) [%] | other results
1 | CN(C(=O)c1ccc(Cl)cc1)c1cccc(C(=O)Nc2c(I)cc(C(F)(C(F)(F)F)C(F)(F)F)cc2C(F)(F)F)c1F [Compound 60] | 95 | 95 | 95 | ≥ 70 | ≥ 70 | 90 | 90 | 90 | ≥ 70 | 95 | 95 | 100 | 100 | 90 | – | pest or weed control at 32 ng [3]: 100%; pest or weed control at 0.2 µg/cm2, 0.2 µg/cm2 (Amblyomma americanum): 90%
2 | COc1ccc(C(=O)N(C)c2cccc(C(=O)Nc3c(I)cc(C(F)(C(F)(F)F)C(F)(F)F)cc3C(F)(F)F)c2F)cc1 [Compound 62] | 95 | 95 | 95 | ≥ 70 | ≥ 70 | 90 | – | 90 | ≥ 70 | 95 | 95 | 100 | 100 | 90 | – | –
3 | O=C(Nc1cccc(C(=O)Nc2c(I)cc(C(F)(C(F)(F)F)C(F)(F)F)cc2C(F)(F)F)c1F)c1ccc(F)cc1 [Compound 63] | 95 | 95 | 95 | ≥ 70 | ≥ 70 | 90 | 90 | 90 | ≥ 70 | – | 95 | 100 | 100 | – | 90 | pest or weed control at 0.2 µg/cm2, 0.2 µg/cm2 (Ixodes ricinus; dose 0.2 μg/cm^2, 48 h): 90%; pest or weed control at 1 µg/cm2, 1 µg/cm2 (Ixodes ricinus): 90%; pest or weed control at 5 µg/cm2, 5 µg/cm2 (Ixodes ricinus): 90%; pest or weed control at 0.032 ppm (Ctenocephalides felis [1]): 95%
4 | CN(C(=O)c1ccc(F)c(F)c1)c1cccc(C(=O)Nc2c(I)cc(C(F)(C(F)(F)F)C(F)(F)C(F)(F)F)cc2C(F)(F)F)c1F (stereo not drawn) [Compound 77] | 95 | 95 | 95 | ≥ 70 | ≥ 70 | 90 | – | 90 | ≥ 70 | 95 | 95 | 100 | 100 | 90 | 90 | pest or weed control at 32 ng [3]: 100%
5 | O=C(Nc1cccc(C(=O)Nc2c(I)cc(C(F)(C(F)(F)F)C(F)(F)F)cc2C(F)(F)F)c1F)c1ccc(Cl)c(Cl)c1 [Compound 80] | 95 | 95 | 95 | ≥ 70 | ≥ 70 | 90 | – | 90 | ≥ 70 | – | – | – | 100 | – | 90 | pest or weed control at 5 µg/cm2, 5 µg/cm2 (Ixodes ricinus): 90%; pest or weed control at 0.032 ppm (Ctenocephalides felis [1]): 95%
6 | O=C(Nc1cccc(C(=O)Nc2c(Br)cc(C(F)(C(F)(F)F)C(F)(F)F)cc2OC(F)(F)F)c1F)c1ccc(C(F)(F)F)nc1 [Compound 99, N-(2-fluoro-3-((2-bromo-4-(perfluoropropan-2-yl)-6-(trifluoromethoxy)phenyl)carbamoyl)phenyl)-6-(trifluoromethyl)nicotinamide] | 95 | 95 | 95 | ≥ 70 | ≥ 70 | 90 | 90 | 90 | ≥ 70 | – | – | 100 | 100 | – | 90 | pest or weed control at 1 µg/cm2, 1 µg/cm2 (Ixodes ricinus): 90%
7 | CN(C(=O)c1ccc(F)c(F)c1)c1cccc(C(=O)Nc2c(Br)cc(C(F)(C(F)(F)F)C(F)(F)F)cc2OC(F)(F)F)c1F [Compound 100] | 95 | 95 | 95 | ≥ 70 | ≥ 70 | 90 | – | 90 | ≥ 70 | 95 | 95 | 100 | 100 | 90 | 90 | pest or weed control at 0.04 µg/cm2, 0.04 µg/cm2 (Ctenocephalides felis [2]; dose 0.04 μg/cm^2, dead or moribund fleas after 48 h): 95%; pest or weed control at 0.2 µg/cm2, 0.2 µg/cm2 (Amblyomma americanum): 90%
